The record followed here is US10485236B2, “Triazole derivatives, intermediates thereof and their use as fungicides” (Bayer CropScience Aktiengesellschaft, priority 2015, dated 2019).

SMILES strings stand for the structures. Marks after values point to notes of the source that are not given here.

This data set in a line: Measurement of LogP values by HPLC on reversed phase columns (EEC directive 79/831 Annex V.A8). The format is physicochemical. As to the method:
[table] If more than one Log P value is available within the same method, all the values are given and separated by “+”. Calibration was done with straight-chain alkan2-ones (with 3 to 16 carbon atoms) with known Log P values (measurement of Log P values using retention times with linear interpolation between successive alkanones). Lambda-max-values were determined using UV-spectra from 200 nm to 400 nm and the peak values of the chromatographic signals.

Turning to `CC(O)c1ccc(Oc2ccc(C(O)Cn3cncn3)c(Cl)n2)cc1` (mixture of isomers) [I.24], the LogP is 1.48^[a].
`CC(O)(Cn1cncn1)c1cnc(Oc2ccc(Cl)cc2)cc1Cl` (racemic) [I.08]: the LogP was 2.50^[a].
`CC(O)(Cn1cncn1)c1ccc(Oc2ccc(Cl)cc2)nc1Cl` (racemic) [I.09]: the LogP was 2.66^[a].
Regarding `OC(Cn1cncn1)c1ccc(Oc2ccc(Cl)c(Cl)c2)nc1Cl` (racemic) [I.10], the LogP was 2.80^[a].
Consider `OC(Cn1cncn1)c1ccc(Oc2ccc(OC(F)(F)F)c(Cl)c2)nc1Cl` (racemic) [I.11], for which the LogP was 3.11^[a].
`OC(Cn1cncn1)c1ccc(Oc2ccc(OC(F)(F)F)cc2)nc1Cl` (racemic) [I.12]: the LogP is 2.73^[a].
Turning to `OC(Cn1cncn1)c1ccc(Oc2ccccc2)nc1Cl` (racemic) [I.13], the LogP is 1.98^[a].
On to `Cc1cc(Cl)ccc1Oc1ccc(C(O)Cn2cncn2)c(Cl)n1` (racemic) [I.15], for which the LogP is 2.75^[a].
As for `OC(Cn1cncn1)c1ccc(Oc2ccc(F)cc2)nc1Cl` (racemic) [I.17], the figure is 2.08^[a]; as for `OC(Cn1cncn1)c1ccc(Oc2ccc(F)cc2F)nc1Cl` (racemic) [I.18], 2.18^[a].
For the compound `OC(Cn1cncn1)c1ccc(Oc2ccccc2F)nc1Cl` (racemic) [I.19], the LogP was 2.08^[a].
With `OC(Cn1cncn1)c1ccc(Oc2cc(F)c(F)c(F)c2)nc1Cl` (racemic) [I.20], the LogP was 1.65^[a].
Turning to `OC(Cn1cncn1)c1cnc(Oc2ccccc2)cc1Cl` (racemic) [I.21], the LogP is 1.92^[a].
As for `OC(Cn1cncn1)c1ncc(Oc2ccccc2)cc1Cl` (racemic) [I.22], the figure is 2.01^[a]; as for `OC(Cn1cncn1)c1ccc(Oc2ccc(Cl)cc2Cl)nc1Cl` (racemic) [I.23], 2.75^[a]; as for `OC(Cn1cncn1)c1ccc(Oc2ccc(Cl)cc2)nc1C(F)F` (racemic) [I.25], 2.44^[a].
In the case of `OC(Cn1cncn1)c1ccc(Oc2ccc(Cl)cc2)nc1OC(F)(F)F` (racemic) [I.26], the LogP is 2.92^[a].
As to `CC(O)(Cn1cncn1)c1ccc(Oc2ccc(F)cc2)nc1Cl` (racemic) [I.27], the LogP is 2.28^[a].
The figure for `Cc1cc(Cl)ccc1Oc1ccc(C(C)(O)Cn2cncn2)c(Cl)n1` (racemic) [I.28] is 2.94^[a]; for `COc1ccc(Oc2ccc(C(O)Cn3cncn3)c(Cl)n2)c(Cl)c1` (racemic) [I.30] it is 2.32^[a]; for `COc1ccc(Oc2ccc(C(C)(O)Cn3cncn3)c(Cl)n2)c(Cl)c1` (racemic) [I.31] it is 2.56^[a].
As for `CC(O)(Cn1cncn1)c1ccc(Oc2ccc(Cl)c(Cl)c2)nc1Cl` (racemic) [I.32], the figure is 3.09^[a]; as for `CC(O)(Cn1cncn1)c1ccc(Oc2ccc(Cl)cc2)nc1OC(F)(F)F` (racemic) [I.33], 3.29^[a]; as for `OC(Cn1cncn1)c1ccc(Oc2ccc(S(F)(F)(F)(F)F)cc2)nc1Cl` (racemic) [I.34], 2.90^[a].
As for `CC(O)(Cn1cncn1)c1ccc(Oc2ccc(Br)cc2)nc1C(F)(F)F` (racemic) [I.59], the figure is 2.94^[a]; as for `OC(Cn1cncn1)(c1ccc(Oc2ccc(Br)cc2)nc1C(F)(F)F)C1CC1` (racemic) [I.81], 3.70^[a].
In the case of `OC(Cn1cncn1)(c1ccc(Oc2ccc(Br)cc2)nc1C(F)(F)F)C1CC1` (single isomer, unassigned) [Example 1.84], the LogP is 3.41^[a].
For `CC(O)(Cn1cncn1)c1cnc(Oc2ccc(Cl)cc2)cc1C(F)(F)F` (single isomer, unassigned) [I.46], the LogP is 2.93^[a].
`CC(O)(Cn1cncn1)c1ccc(Oc2ccc(Cl)cc2)nc1Cl` (single isomer, unassigned) [I.51]: the LogP is 2.62^[a].
On to `CC(O)(Cn1cncn1)c1ccc(Oc2ccc(Cl)cc2)nc1Cl` (single isomer, unassigned) [I.52], for which the LogP was 2.62^[a].
As for `CC(O)(Cn1cncn1)c1cnc(Oc2ccc(Cl)cc2)cc1Cl` (single isomer, unassigned) [I.53], the LogP was 2.53^[a].
On to `CC(O)(Cn1cncn1)c1cnc(Oc2ccc(Cl)cc2)cc1Cl` (single isomer, unassigned) [I.54], for which the LogP was 2.53^[a].
In the case of `OC(Cn1cncn1)c1ccc(Oc2ccc(C(F)(F)F)cc2)nc1C(F)(F)F` (single isomer, unassigned) [I.72], the LogP was 2.86^[a].
As to `OC(Cn1cncn1)c1cnc(Oc2ccc(S(F)(F)(F)(F)F)cc2)cc1C(F)(F)F` (single isomer, unassigned) [I.83], the LogP was 3.11^[a].
`OC(Cn1cncn1)c1cnc(Oc2ccc(S(F)(F)(F)(F)F)cc2)cc1C(F)(F)F` (single isomer, unassigned) [I.86]: the LogP is 3.11^[a].
For the compound `OC(Cn1cncn1)c1cnc(Oc2ccc(C(F)(F)F)cc2)cc1C(F)(F)F` (single isomer, unassigned) [I.92], the LogP was 2.86^[a].
Regarding `OC(Cn1cncn1)(c1ccc(Oc2ccc(Br)cc2)nc1C(F)(F)F)C1CC1` (single isomer, unassigned) [I.99], the LogP was 3.41^[a].
The figure for `CC(O)(Cn1cncn1)c1ccc(Oc2ccc(Br)cc2)nc1C(F)(F)F` (single isomer, unassigned) [I.101] is 2.94^[a].
As to `CC(O)(Cn1cncn1)c1ccc(Oc2ccc(Br)cc2)nc1C(F)(F)F` (single isomer, unassigned) [I.102], the LogP was 2.94^[a].
For the compound `CC(O)(Cn1cncn1)c1cnc(Oc2ccc(S(F)(F)(F)(F)F)cc2)cc1C(F)(F)F` (centres unmarked) [I.37], the LogP was 3.33^[a].
As to `OC(Cn1cncn1)c1ccc(Oc2ccc(C(F)F)cc2)nc1Cl` (centres unmarked) [I.38], the LogP was 2.17^[a].
As for `OC(Cn1cncn1)c1ccc(Oc2ccc(Br)cc2)nc1C(F)(F)F` (centres unmarked) [I.40], the figure is 2.82^[a]; as for `OC(Cn1cncn1)c1ccc(Oc2ccc(Cl)cc2)nc1F` (centres unmarked) [I.41], 2.23^[a].
The figure for `CC(O)(Cn1cncn1)c1ccc(Oc2ccc(Cl)cc2)nc1F` (centres unmarked) [I.42] is 2.46^[a]; for `OC(Cn1cncn1)c1cnc(Oc2ccc(OC(F)(F)F)cc2)cc1C(F)(F)F` (centres unmarked) [I.43] it is 3.00^[a].
Consider `CC(O)(Cn1cncn1)c1cnc(Oc2ccc(OC(F)(F)F)cc2)cc1C(F)(F)F` (centres unmarked) [I.44], for which the LogP is 3.23^[a].
The figure for `OC(Cn1cncn1)c1cnc(Oc2ccc(Br)cc2)cc1C(F)(F)F` (centres unmarked) [I.48] is 2.75^[a].
The figure for `CC(O)(Cn1cncn1)c1cnc(Oc2ccc(Br)cc2)cc1C(F)(F)F` (centres unmarked) [I.49] is 2.96^[a]; for `CC(O)(Cn1cncn1)c1cnc(Oc2ccc(C(F)(F)F)cc2)cc1C(F)(F)F` (centres unmarked) [I.50] it is 3.11^[a]; for `OC(Cn1cncn1)c1cnc(Oc2ccc(C(F)F)cc2)cc1C(F)(F)F` (centres unmarked) [I.55] it is 2.55^[a].
As for `CC(O)(Cn1cncn1)c1cnc(Oc2ccc(C(F)F)cc2)cc1C(F)(F)F` (centres unmarked) [I.56], the LogP was 2.73^[a].
In the case of `OC(Cn1cncn1)c1cnc(Oc2ccc(Cl)cc2F)cc1C(F)(F)F` (centres unmarked) [I.57], the LogP is 2.86^[a].
The figure for `CC(O)(Cn1cncn1)c1cnc(Oc2ccc(Cl)cc2F)cc1C(F)(F)F` (centres unmarked) [I.58] is 3.02^[a]; for `OC(Cn1cncn1)c1ccc(Oc2ccc(S(F)(F)(F)(F)F)cc2)nc1C(F)(F)F` (centres unmarked) [I.60] it is 3.08^[a]; for `OC(Cn1cncn1)c1ccc(Oc2ccc(C(F)(F)F)cc2)nc1C(F)(F)F` (centres unmarked) [I.61] it is 2.84^[a].
On to `CC(O)(Cn1cncn1)c1ccc(Oc2ccc(S(F)(F)(F)(F)F)cc2)nc1C(F)(F)F` (centres unmarked) [I.62], for which the LogP was 3.25^[a].
Turning to `OC(Cn1cncn1)c1cnc(Oc2ccc(Br)cc2)cc1C(F)F` (centres unmarked) [I.63], the LogP was 2.59^[a].
In the case of `CC(O)(Cn1cncn1)c1cnc(Oc2ccc(Cl)cc2)cc1C(F)F` (centres unmarked) [I.64], the LogP was 2.68^[a].
As for `CC(O)(Cn1cncn1)c1ccc(Oc2ccc(C(F)(F)F)cc2)nc1C(F)(F)F` (centres unmarked) [I.65], the figure is 3.04^[a]; as for `CC(O)(Cn1cncn1)c1ccc(Oc2ccc(Cl)cc2F)nc1C(F)(F)F` (centres unmarked) [I.66], 2.80^[a]; as for `CC(O)(Cn1cncn1)c1ccc(Oc2ccc(Cl)cc2)nc1C(F)(F)F` (centres unmarked) [I.67], 2.68^[a].
Consider `OC(Cn1cncn1)c1cnc(Oc2ccc(Cl)cc2)cc1Cl` (centres unmarked) [I.68], for which the LogP is 2.48^[a].
As to `C=CC(O)(Cn1cncn1)c1cnc(Oc2ccc(C(F)(F)F)cc2)cc1C(F)(F)F` (centres unmarked) [I.69], the LogP was 3.33^[a].
As for `OC(Cn1cncn1)c1ccc(Oc2ccc(Cl)cc2F)nc1C(F)(F)F` (centres unmarked) [I.70], the figure is 2.78^[a].
The figure for `OC(Cn1cncn1)(c1ccc(Oc2ccc(Cl)cc2)nc1C(F)(F)F)C1CC1` (centres unmarked) [I.71] is 3.35^[a].
In the case of `OC(Cn1cncn1)c1ccc(Oc2ccc(Br)cc2)nc1C(F)F` (centres unmarked) [I.73], the LogP is 2.50^[a].
Consider `OC(Cn1cncn1)c1ccc(Oc2ccc(C(F)F)cc2)nc1C(F)(F)F` (centres unmarked) [I.74], for which the LogP is 2.49^[a].
For the compound `CC(C)c1ccc(Oc2ccc(C(C)(O)Cn3cncn3)c(C(F)(F)F)n2)cc1` (centres unmarked) [I.75], the LogP is 3.35^[a].
As to `CCC(O)(Cn1cncn1)c1cnc(Oc2ccc(C(F)(F)F)cc2)cc1C(F)(F)F` (centres unmarked) [I.76], the LogP is 3.52^[a].
The figure for `CC(O)(Cn1cncn1)c1ccc(Oc2ccc(F)cc2)nc1Oc1ccc(F)cc1` (centres unmarked) [I.77] is 3.13^[a]; for `CC(O)(Cn1cncn1)c1cnc(Oc2ccc(C(F)(F)F)cc2)cc1Cl` (centres unmarked) [I.78] it is 2.88^[a]; for `OC(Cn1cncn1)c1ccc(Oc2ccc(OC(F)(F)F)cc2)nc1C(F)(F)F` (centres unmarked) [I.79] it is 2.89^[a].
As for `OC(Cn1cncn1)(c1ccc(Oc2ccc(Cl)cc2)nc1C(F)(F)F)C1CC1` (centres unmarked) [I.80], the LogP was 3.32^[a].
As for `CC(O)(Cn1cncn1)c1cnc(Oc2ccc(Br)cc2)cc1C(F)F` (centres unmarked) [I.82], the figure is 2.78^[a].
